Columns and labels:
Rattus norvegicus [1] = species: Rattus norvegicus; experiment: Compound was tested for cardiac ionotropism and expressed as dP/dtmax.; format: functional; set-up: concentration or dose not given beside the values
Rattus norvegicus [2] = experiment: Compound was tested for its effect on respiratory frequency in anaesthetized rats after i.v. administration at a dose of 4.12 umol/kg.; format: functional
Rattus norvegicus [3] = experiment: Compound was tested for its effect on diastolic blood pressure in anaesthetized rats after i.v. administration at a dose of 4.12 umol/kg.; format: functional, Artery
Rattus norvegicus [4] = experiment: Compound was tested for its effect on systolic blood pressure in anaesthetized rats after i.v. administration at a dose of 4.12 umol/kg.; format: functional, Artery
Rattus norvegicus [5] = experiment: Compound was tested for its effect on heart rate in anaesthetized rats after i.v. administration at a dose of 4.12 umol/kg.; format: functional
Rattus norvegicus [6] = experiment: Compound was tested for its effect on heart rate in anaesthetized rats after i.v. administration at a dose of 4.12 umol/kg; format: functional

| SMILES | dP/dt max (Rattus norvegicus [1]) [mmHg s-1] | RF (Rattus norvegicus [2]) [delta beats min-1] | Activity (Rattus norvegicus [3]) [delta mmHg] | Activity (Rattus norvegicus [4]) [delta mmHg] | HR (Rattus norvegicus [5]) [delta beats min-1] | HR (Rattus norvegicus [6]) [delta beats min-1] |
| --- | --- | --- | --- | --- | --- | --- |
| COc1ccc(C(=O)NCCCC/N=C(\N)NCC=C(C)C)cc1.CS(=O)(=O)O | 3249 | 17 | -35 | -26 | -16 |  |
| COc1ccc(CCC(=O)NCCCC/N=C(\N)NCC=C(C)C)cc1OC.CS(=O)(=O)O | 2252 | 6 | -14 | -15 | -12 |  |
| COc1ccc(/C=C/C(=O)NCCCCCC/N=C(\N)NCC=C(C)C)cc1OC.CS(=O)(=O)O | 648 | 4 | -8 | -9 |  | 4 |
| CC(C)=CC/N=C(/N)NCCCCNC(=O)/C=C/c1ccccc1.CS(=O)(=O)O | 6070 | 12 | -59 | -47 | 19 |  |
| COc1ccc(C#CC(=O)NCCCC/N=C(\N)NCC=C(C)C)cc1OC.CS(=O)(=O)O | 3424 | 14 | -24 | -14 | 14 |  |
| COc1ccc([C@H]2C[C@@H]2C(=O)NCCCC/N=C(\N)NCC=C(C)C)cc1OC.CS(=O)(=O)O | 2781 | 19 | -26 | -30 | -19 |  |
| COc1ccc(/C=C/C(=O)NCCCCC/N=C(\N)NCC=C(C)C)cc1OC.CS(=O)(=O)O | 5028 | -10 | -40 | -34 |  | 8 |
| COc1ccc(/C=C/C(=O)NCCCC/N=C(\N)NCC=C(C)C)cc1OC.CS(=O)(=O)O | 2996 | 23 | -18 | -21 | 22 |  |
| COc1ccc(CC(=O)NCCCC/N=C(\N)NCC=C(C)C)cc1OC.CS(=O)(=O)O | 3088 | 16 | -31 | -22 | -24 |  |

From ChEMBL document CHEMBL1128996, “Synthesis and preliminary pharmacological evaluation of analogues of caracasanamide, a hypotensive natural product” (1996)
